Entries after “also recorded” stand apart in the source; their conditions may differ. Read-outs that look alike come from different tables or passages of the source.

The values below come from patent publication US8148510B2, “Antifungal polypeptides” (Pioneer Hi-Bred International, Inc., priority 2004, dated 2012).

The subject of experiment [1] is Fusarium verticillioides (FVE). The format is cell-based.
Experiment [2] relates to Fusarium graminearum (FGR). The format is cell-based. The conditions noted are these: plate assay, qualitative.
Experiment [3] has as its system Colletotrichum graminicola (CGR). The format is cell-based. The conditions noted are these: plate assay, qualitative.
The subject of another experiment is Diplodia maydis (DMA). It counts as cell-based. The conditions noted are these: plate assay, qualitative.
Experiment [4] concerns Fusarium verticillioides (FVE). Put plainly: antifungal activity assay of transgenic maize callus extracts. It counts as cell-based. The settings on record: against FVE, qualitative.
For experiment [5], the system named is F. verticilioides line that expresses the reporter gene β-glucuronidase (GUS). The experiment is described as follows: Fusarium verticillioides challenge assay of maize seedlings (GUS activity). The format is in vivo. The conditions noted are these: maize seedlings transformed with PHP22300; three days after spore exposure; 4 explants per event.
Experiment [6] relates to C. graminicola. The experiment is described as follows: upper stalk resistance of transgenic maize plants. It counts as in vivo, Colletotrichum graminicola. The conditions noted are these: T0 transgenic maize, uppermost stalk internode, about five days after inoculation, 10 cm^2 area around inoculation site; control 84.7±2.6%.
Experiment [7] concerns C. graminicola. Put plainly: lower stalk resistance of transgenic maize plants. The conditions noted are these: T0 transgenic maize, lowest internode inoculated 10 DAP, scored after 21 days, five lowermost internodes; empty vector control 4.0±0.2. It counts as in vivo, Colletotrichum graminicola.

With “LBNL-5197/8-2: antifungal polypeptide from Penicillium miczyinskii strain K01-17A4 (LSKYGGECSLAHNTCTYLKGGKNQVVACGTAANKRCKTDRHHCEYDEYHKTVDCQTPV)”, the “antifungal activity against FVE” value in experiment [1] is on record as “anti-FVE activity; also recorded: display antifungal activity”. For the same molecule, the “antifungal activity against FGR” value in experiment [2] is “display antifungal activity”. The “antifungal activity against CGR” value in experiment [3] is “display antifungal activity”. Also, in the experiment on Diplodia maydis (DMA), the “antifungal activity against DMA” value is “display antifungal activity”.
With “LBNL-9827-1: antifungal polypeptide from Monascus ruber IMV 00127; identical to SEQ ID NO:9 without 3 N-terminal amino acids (LSKFGGECSLKHNTCTYLKGGKNHVVNCGSAANKKCKSDRHHCEYDEHHKRVDCQTPV)”, the “antifungal activity against FVE” value in experiment [1] is listed as “active against FVE; also recorded: display antifungal activity”. Besides, the “antifungal activity against FGR” value in experiment [2] is reported as “display antifungal activity”. Besides, in experiment [3], the “antifungal activity against CGR” value is reported as “display antifungal activity”. Also, in the experiment with Diplodia maydis (DMA), the “antifungal activity against DMA” value is on record as “display antifungal activity”.
With “LBNL-5220: antifungal polypeptide (55 amino acids, mature mass 6174 Da) isolated from Penicillium simplicissimum fermentation broth (LKYTGTCTRANNQCKYKGQNDRDTFVKCPTFANKKCTRDGAPCSFDSYSRAVTCD)”, the “antifungal activity against FVE” value in experiment [1] is “showed antifungal activity; also recorded: display antifungal activity”. For the same molecule, the “antifungal activity against FGR” value in experiment [2] (listed as SEQ ID NO:1) is on record as “showed antifungal activity; also recorded: display antifungal activity”. Further, in experiment [3] (listed as SEQ ID NO:1), the “antifungal activity against CGR” value was “showed antifungal activity; also recorded: display antifungal activity”. For the same molecule, the “antifungal activity against DMA” value in the experiment with Diplodia maydis (DMA) (listed as SEQ ID NO:1) is given as “showed antifungal activity; also recorded: display antifungal activity”. In addition, the “antifungal activity of protein produced and isolated from transgenic maize callus” value in experiment [4] is reported as “has antifungal activity”. In experiment [5], the “average GUS activity (correlates with fungal biomass) relative to controls” value is recorded as “decrease in average GUS activity”. For the same molecule, in the experiment on C. graminicola [6], the “mean percent infected area” value was 54.4±1.4%. Further, the “mean score (number of internodes showing more than 75% disease)” value with C. graminicola [7] is listed as 2.2±0.1.

B1: LBNL-9827-2: antifungal polypeptide from Monascus ruber IMV 00127; 3 additional N-terminal amino acids versus SEQ ID NO:7 (protein)
chain: DVQLSKFGGECSLKHNTCTYLKGGKNHVVNCGSAANKKCKSDRHHCEYDEHHKRVDCQTPV
For B1, in experiment [1], the “antifungal activity against FVE” value was “inhibited FVE, FGR, CGR, and DMA in a dose-dependent fashion; also recorded: inhibited Colletotrichum graminicola, Diplodia maydis, Fusarium graminearum, and Fusarium verticillioides in a dose-dependent fashion; also recorded: display antifungal activity”. Moreover, in experiment [2] (listed as SEQ ID NO:9), the “antifungal activity against FGR” value was “inhibited FVE, FGR, CGR, and DMA in a dose-dependent fashion; also recorded: inhibited Colletotrichum graminicola, Diplodia maydis, Fusarium graminearum, and Fusarium verticillioides in a dose-dependent fashion; also recorded: display antifungal activity”. For the same molecule, the “antifungal activity against CGR” value in experiment [3] (listed as SEQ ID NO:9) was “inhibited FVE, FGR, CGR, and DMA in a dose-dependent fashion; also recorded: inhibited Colletotrichum graminicola, Diplodia maydis, Fusarium graminearum, and Fusarium verticillioides in a dose-dependent fashion; also recorded: display antifungal activity”. Further, the “antifungal activity against DMA” value in the experiment with Diplodia maydis (DMA) (listed as SEQ ID NO:9) is “inhibited FVE, FGR, CGR, and DMA in a dose-dependent fashion; also recorded: inhibited Colletotrichum graminicola, Diplodia maydis, Fusarium graminearum, and Fusarium verticillioides in a dose-dependent fashion; also recorded: display antifungal activity”.
